Data: article PMC10283052, “Intranasal delivery of mitochondrial protein humanin rescues cell death and promotes mitochondrial function in Parkinson's disease” (Theranostics, 2023)

Test system: rat organotypic slices
Assay: Ex vivo PD model, organotypic brain slices with 6-OHDA
Assay type: cell-based
Details: then 6-OHDA 100 μM, 2 h
Procedure: Postnatal 5-7-day-old rat pups were used to prepare organotypic slices, as previously described, with minor modifications. The brain of anesthetized pups was aseptically removed. The brain hemispheres were separated and cut sagittally into 350-μm slices using a MacIlwain tissue chopper (MacIlwain, Mickle Laboratory, Cambridge, UK). The slices were transferred to ice-cold Gray's Balanced Salt solution containing CaCl2 (1.5 mM), NaCl (136 mM), KCl (5 mM), KH2PO4 (0.2 mM), MgCl2 (1 mM), MgSO4 (0.2 mM), NaHCO3 (0.2 mM), Na2PO4 (0.08 mM), and glucose (5.5 mM). […]
Mouse brain tissue samples and cells were homogenized in radioimmunoprecipitation assay (RIPA) buffer (Cell Signaling, Danvers, MA, USA) in the presence of a protease and phosphatase inhibitor cocktail (Thermo Fisher Scientific). […] The results were analyzed using the ImageJ densitometry system. […]
The organotypic slice cultures were exposed to 6-OHDA at the tissue surface on DIV 8 to avoid apoptosis due to nutrients and to induce proper maturation. […] Intracellular ATP was quantified using the CellTiter-Glo Luminescent Viability Kit (Promega Corporation, Madison, WI, USA), according to the manufacturer's protocol. Luminescence was measured using a SpectraMax L Microplate Reader (Molecular Devices).

Substance: humanin (MAPRGFSCLLLLTSEIDLPVKRRA; Humanin; UniProt Q8IVG9 1-24, looked up) [HN, mitochondria-derived peptide encoded by the mitochondrial genome, synthesized by Fmoc-based SPPS at GL Biochem]
- mitochondrial biogenesis markers PGC-1α and NRF1, western blot (HN pre-treatment 1 μM, 24 h): stimulated mitochondrial biogenesis
- ATP levels (CellTiter-Glo luminescence) (HN pre-treatment 24 h, 0.1 or 1 μM): effectively inhibited significant depletion of ATP levels
